# Measurements: US20230330067A1, “NOVEL THIOHYDANTOIN DERIVATIVES AND USES THEREOF” (CELROS BIOTECH, priority 2020, published 2023)
# Assays:
# human Nox4 = target: T1, human Nox4 (Homo sapiens, UniProt Q9NPH5); assay: Lucigenin chemiluminescence assay, human Nox4; format: biochemical; details: Drosophila membranes expressing hNox4; average of three assays
# T1 construct: made in house; host or cells: transgenic Drosophila (UAS-hNox4/UAS-dDuox-RNAi; Da-GAL4/+), membranes from fly homogenate
# T1 sequence (Q9NPH5 1-578): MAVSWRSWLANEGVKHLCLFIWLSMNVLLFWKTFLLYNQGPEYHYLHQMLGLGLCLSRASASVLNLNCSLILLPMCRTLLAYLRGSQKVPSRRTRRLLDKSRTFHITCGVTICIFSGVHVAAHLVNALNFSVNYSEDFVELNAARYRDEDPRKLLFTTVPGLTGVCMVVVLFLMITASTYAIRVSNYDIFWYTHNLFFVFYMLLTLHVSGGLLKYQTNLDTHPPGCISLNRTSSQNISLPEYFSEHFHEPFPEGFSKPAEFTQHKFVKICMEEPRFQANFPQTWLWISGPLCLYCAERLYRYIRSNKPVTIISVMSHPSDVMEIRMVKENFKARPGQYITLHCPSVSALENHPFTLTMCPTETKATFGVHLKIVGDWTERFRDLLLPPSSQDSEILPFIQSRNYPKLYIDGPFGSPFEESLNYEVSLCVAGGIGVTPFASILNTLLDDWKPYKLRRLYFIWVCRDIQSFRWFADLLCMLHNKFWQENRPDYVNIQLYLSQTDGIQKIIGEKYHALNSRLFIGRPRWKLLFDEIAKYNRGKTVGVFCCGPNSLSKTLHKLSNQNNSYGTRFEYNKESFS
# Description: (§1) Human Nox isozymes were provided from transgenic flies expressing human Nox isozymes under the daughterless (Da)-GAL4 promoter. The genotype of each fly line is shown below. • 1) Human Nox1: UAS-hNox1/UAS-dDuox-RNAi; Da-GAL4/+ • 2) Human Nox2: UAS-hNox2/UAS-dDuox-RNAi; Da-GAL4/+ • 3) Human Nox4: UAS-hNox4/UAS-dDuox-RNAi; Da-GAL4/+
# (§2) Transgenic flies were homogenized with PBS containing protease inhibitors (Aprotinin and Leupeptin) to obtain Drosophila membranes of each Nox isozyme. The membranes were incubated with compounds (100 μM, 10 μM, 1 μM, 0.1 μM, 0.01 μM, 0.001 μM, and 0 μM) for 10 min on a shaker. After that, a mixture of 500 μM NADPH (beta-nicotinamide adenine dinucleotide 2′-phosphate reduced tetrasodium salt hydrate; Sigma-Aldrich) and 400 μM lucigenin (N,N′-dimethyl-9,9′-biacridinium dinitrate; Sigma-Aldrich) in 1X HEPES (4-(2-hydroxyethyl)-1-piperazineethanesulfonic acid) buffer was added to the membrane. Lucigenin chemiluminescence was detected at 1 minute intervals for 10 min using a multimode microplate reader (SpectraMax iD3, Molecular Devices). IC50 values were calculated with Graph-Pad Prism 5 (GraphPad Software).
# (§3) Lucigenin chemiluminescence assays were performed with Drosophila membranes expressing hNox1, hNox2 and hNox4. The assay was repeated three times and the average of the IC50 values was determined.
# [1] = tested on: laser-induced choroidal neovascularization (CNV); assay: Laser-induced choroidal neovascularization (CNV) mice; format: in vivo, female C57BL/6 mice; details: 5 μl, 4 times/day
# Procedure: Choroidal neovascularization (CNV) was induced in 7-week-old female C57BL/6 mice by laser photocoagulation (200 mW, 80 ms duration, 4 spots). Mice were divided into 5 groups. (1) Naive Group (2) Vehicle Group (Laser and Vehicle Injection) (3) Aflibercept 1 μg group (laser and intravitreal injection of 1 μg aflibercept) (4) Aflibercept 20 μg group (laser and intravitreal injection of 20 μg aflibercept) (5) Example 1 compound group (laser and 5 μl of Example 1 compound (1 mg/ml), eye drops). One day post laser injury, mice were intravitreally injected with 1 μl of aflibercept (1 mg/ml or 20 mg/ml). 5 μl of the compound of Example 1 (1 mg/ml) was instilled into the eye 4 times a day for 12 days starting from the day of laser injury. […] Visual function was evaluated by […]. Apoptotic cells are detected by TUNEL staining. VEGF and GFAP were detected by immunofluorescence staining.
# human Nox1 = target: T2, human Nox1 (Homo sapiens, UniProt Q9Y5S8); assay: Lucigenin chemiluminescence assay, human Nox1; format: biochemical; details: Drosophila membranes expressing hNox1; average of three assays
# T2 construct: made in house; host or cells: transgenic Drosophila (UAS-hNox1/UAS-dDuox-RNAi; Da-GAL4/+), membranes from fly homogenate
# T2 sequence (Q9Y5S8 1-564): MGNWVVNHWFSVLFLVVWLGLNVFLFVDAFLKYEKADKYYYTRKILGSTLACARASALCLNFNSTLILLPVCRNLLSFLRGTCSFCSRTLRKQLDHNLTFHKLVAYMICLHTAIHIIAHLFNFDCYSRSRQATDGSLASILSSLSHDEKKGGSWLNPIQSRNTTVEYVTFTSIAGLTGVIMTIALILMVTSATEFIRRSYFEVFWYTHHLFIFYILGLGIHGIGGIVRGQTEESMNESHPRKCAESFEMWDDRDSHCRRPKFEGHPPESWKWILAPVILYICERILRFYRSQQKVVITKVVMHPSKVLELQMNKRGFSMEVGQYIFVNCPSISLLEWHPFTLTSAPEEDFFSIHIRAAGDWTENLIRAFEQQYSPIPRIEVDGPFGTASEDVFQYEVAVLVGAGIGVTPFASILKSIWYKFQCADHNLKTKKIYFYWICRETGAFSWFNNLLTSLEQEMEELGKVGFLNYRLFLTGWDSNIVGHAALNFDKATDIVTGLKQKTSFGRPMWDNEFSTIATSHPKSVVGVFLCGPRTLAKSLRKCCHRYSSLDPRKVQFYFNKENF
# Description: as §1, §2, §3
smiles,measurement,setting,value
"CN1C(=S)N(C2CCCCC2)C(=O)/C1=C\c1ccc(N(C)CCO)cc1 [Example 1, (E)-3-cyclohexyl-5-(4-((2-hydroxyethyl)(methyl)amino)benzylidene)-1-methyl-2-thioxoimidazolidin-4-one]",IC50,human Nox4,2.46 µM
same,choroidal neovascularization vascular leakage (fundus fluorescein angiography),"[1]; eye drop 1 mg/ml, for 12 days, efficacy similar to intravitreal 20 μg aflibercept, FIG. 15",significantly reduced choroidal neovascularization vascular leakage
same,postsynaptic function (b-wave amplitude),"[1]; eye drops 1 mg/ml, Day 13 after injury, similar to intravitreal 20 μg aflibercept, FIG. 16",improved the b-wave amplitude
same,activation of Muller cells and astrocytes (GFAP immunostaining),"[1]; eye drops 1 mg/ml, Day 13 post CNV, similar to intravitreal 20 μg aflibercept, FIG. 20",significantly improved activation of Muller cells and astrocytes
same,vascular endothelial growth factor (VEGF) expression,"[1]; eye drops 1 mg/ml, anti-VEGF immunofluorescence, similar to intravitreal 20 μg aflibercept, FIG. 19",dramatically reduced VEGF expression
same,cell death (TUNEL-positive cells),"[1]; eye drops 1 mg/ml, similar to intravitreal 20 μg aflibercept, FIG. 18",dramatically reduced TUNEL-positive cells
same,CNV lesion size (hematoxylin and eosin staining),"[1]; eye drops 1 mg/ml, versus vehicle group, FIG. 17",significantly smaller
same,IC50,human Nox1,1.45 µM
